Data as given in patent publication US12252524B2, “GIP/GLP1 co-agonist compounds” (Eli Lilly and Company, priority 2018, dated 2025).
Numbered stars: 1 amine (or outer) side, 2 acyl side, 3 side chain; on linkers, the order of the positions; unused ones are H or OH. Square brackets hold non-standard residues; d marks the D form. Side chains are listed from the residue outwards. Peptide text beside a SMILES is read from it. * marks the point of attachment. C20 diacid = O=C(O)CCCCCCCCCCCCCCCCCCC(=O)*; C18 diacid = O=C(O)CCCCCCCCCCCCCCCCC(=O)*; αMePhe(2-F) = C[C@](N)(Cc1ccccc1F)C(=O)O; γGlu = O=C(O)[C@H](CCC(=O)[*:2])N[*:1]; αMeY = C[C@](N)(Cc1ccc(O)cc1)C(=O)O; αMeL = CC(C)C[C@](C)(N)C(=O)O; AEEA = NCCOCCOCC(=O)O; Aib = CC(C)(N)C(=O)O

Tests used:
[1] = target: T1, human Gcg receptor (Homo sapiens, UniProt P47871); test: [125I]-Glucagon binding (SPA), human Gcg receptor; conditions: read-out: hGLcgR Ki, nM (SEM, n)
T1 construct: expressed in transfected cells; crude membranes
T1 sequence (P47871 26-477): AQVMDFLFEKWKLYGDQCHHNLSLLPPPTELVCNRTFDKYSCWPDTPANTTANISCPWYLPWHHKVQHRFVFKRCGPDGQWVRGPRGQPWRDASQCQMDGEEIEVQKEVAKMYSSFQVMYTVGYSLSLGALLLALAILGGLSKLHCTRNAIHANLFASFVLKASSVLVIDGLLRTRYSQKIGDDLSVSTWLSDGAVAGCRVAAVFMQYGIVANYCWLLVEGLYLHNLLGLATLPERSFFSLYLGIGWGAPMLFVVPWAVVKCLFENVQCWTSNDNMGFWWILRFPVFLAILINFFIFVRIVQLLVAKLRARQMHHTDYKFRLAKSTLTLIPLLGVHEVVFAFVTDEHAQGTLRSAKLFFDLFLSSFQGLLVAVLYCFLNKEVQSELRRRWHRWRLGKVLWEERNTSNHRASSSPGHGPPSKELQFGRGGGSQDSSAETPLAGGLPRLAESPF
How it was run: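 Crude membranes from cells expressing the receptor, prepared by hypotonic lysis in 50 mM Tris HCl pH 7.5 with protease inhibitors, homogenization and differential centrifugation, were used in a WGA-bead SPA. Binding buffer: 25 mM HEPES pH 7.4, 2.5 mM CaCl2, 1 mM MgCl2, bacitracin, Tween-20.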

[2] = target: T2, human GIP receptor (Homo sapiens, UniProt P48546); test: [125I]-GIP binding (SPA), human GIP receptor; conditions: read-out: hGIPR Ki, nM (SEM, n)
T2 construct: expressed in transfected cells; crude membranes
T2 sequence (P48546 22-466): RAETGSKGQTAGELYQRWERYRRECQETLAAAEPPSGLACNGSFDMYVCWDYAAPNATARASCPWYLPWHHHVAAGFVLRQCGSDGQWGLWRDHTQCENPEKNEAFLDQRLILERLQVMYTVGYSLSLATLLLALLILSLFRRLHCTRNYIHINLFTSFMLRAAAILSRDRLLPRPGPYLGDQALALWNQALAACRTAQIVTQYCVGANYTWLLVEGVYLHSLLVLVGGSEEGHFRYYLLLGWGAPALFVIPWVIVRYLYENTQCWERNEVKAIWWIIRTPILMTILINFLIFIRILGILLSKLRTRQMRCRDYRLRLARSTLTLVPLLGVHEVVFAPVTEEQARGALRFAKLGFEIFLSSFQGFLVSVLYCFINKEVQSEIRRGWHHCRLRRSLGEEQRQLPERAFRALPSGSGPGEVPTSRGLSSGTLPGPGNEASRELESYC

[3] = target: human GLP-1 receptor (GLP-1R) (Homo sapiens, UniProt P43220); test: cAMP pharmacological functional assay in presence of casein, hGLP-1R; type: cell-based; conditions: HEK293 cells expressing hGLP-1R, 0.1% Casein, geometric mean; read-out: hGLP1R cAMP Rel EC50 nM (SEM, n)
Sequence of human GLP-1 receptor (GLP-1R) (P43220 24-463): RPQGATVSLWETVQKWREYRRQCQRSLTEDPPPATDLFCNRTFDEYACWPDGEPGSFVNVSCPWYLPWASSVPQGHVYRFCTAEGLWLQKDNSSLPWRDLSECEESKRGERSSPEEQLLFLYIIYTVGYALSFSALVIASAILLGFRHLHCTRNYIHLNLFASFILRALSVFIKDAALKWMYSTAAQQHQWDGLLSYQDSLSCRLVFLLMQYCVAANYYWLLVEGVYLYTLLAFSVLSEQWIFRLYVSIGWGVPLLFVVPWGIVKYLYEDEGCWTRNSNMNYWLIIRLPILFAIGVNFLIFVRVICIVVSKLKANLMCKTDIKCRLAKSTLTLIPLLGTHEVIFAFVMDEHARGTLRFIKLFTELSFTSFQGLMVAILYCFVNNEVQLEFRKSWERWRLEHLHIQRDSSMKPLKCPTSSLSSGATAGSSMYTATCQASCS

[4] = target: T3, gastric inhibitory peptide receptor (GIPR) (Homo sapiens, UniProt P48546); test: cAMP pharmacological functional assay in presence of casein, hGIPR; type: cell-based; conditions: HEK293 cells expressing hGIPR, 0.1% Casein, geometric mean; read-out: hGIPR cAMP Rel EC50 nM (SEM, n)
T3 sequence (P48546 22-466): T2 sequence (P48546 22-466)

[5] = target: human GLP-1R (Homo sapiens, UniProt P43220); test: [125I]-GLP-1 binding (SPA), human GLP-1 receptor; set-up: expressed in transfected cells; crude membranes; conditions: read-out: hGLP1R Ki, (nM) (SEM, n)
Sequence of human GLP-1R (P43220 24-463): as above
How it was run: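 Crude-membrane binding assay; one membrane prep included 1 mM MgCl2 and 25 units/ml DNAse I during lysis. Assay buffer at pH 7.4 contains 0.1% (w/v) bacitracin and 0.003% (w/v) TWEEN-20. Ki is reported as geometric mean.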

Row | SMILES | Ki [1] | Ki [2] | EC50 [3] | EC50 [4] | Ki [5]
1 | CC[C@H](C)[C@H](NC(=O)[C@H](CC(C)C)NC(=O)[C@H](Cc1ccc(O)cc1)NC(=O)[C@@H](CCC(=O)O)NC(=O)[C@@H](NC(=O)[C@H](Cc1ccccc1)NC(=O)[C@H](CCC(=O)O)NC(=O)C(C)(C)NC(=O)[C@H](CCC(N)=O)NC(=O)[C@H](C)NC(=O)[C@H](CCCCNC(=O)COCCOCCNC(=O)COCCOCCNC(=O)CC[C@H](NC(=O)CCCCCCCCCCCCCCCCC(=O)O)C(=O)O)NC(=O)[C@H](CCC(=O)O)NC(=O)[C@H](CC(=O)O)NC(=O)[C@H](CC(C)C)NC(=O)[C@](C)(CC(C)C)NC(=O)[C@@H](NC(=O)[C@H](CO)NC(=O)[C@H](Cc1ccc(O)cc1)NC(=O)[C@H](CC(=O)O)NC(=O)[C@H](CO)NC(=O)[C@@H](NC(=O)[C@](C)(Cc1ccccc1F)NC(=O)[C@@H](NC(=O)CNC(=O)[C@H](CCC(=O)O)NC(=O)C(C)(C)NC(=O)[C@@H](N)Cc1ccc(O)cc1)[C@@H](C)O)[C@@H](C)O)[C@@H](C)CC)[C@@H](C)CC)C(=O)N[C@@H](CCC(=O)O)C(=O)NCC(=O)NCC(N)=O [Example 220] (H-Y[Aib]EGT[αMePhe(2-F)]TSDYSI[αMeL]LDEK([AEEA-AEEA-γGlu-C18 diacid])AQ[Aib]EFI[dE]YLIEGG-NH2; N-terminus assumed) | 377 nM | 0.0919 nM | 0.0312 nM | 0.0315 nM | 2.71 nM
2 | CC[C@H](C)[C@H](NC(=O)[C@H](CC(C)C)NC(=O)[C@H](Cc1ccc(O)cc1)NC(=O)[C@@H](CCC(=O)O)NC(=O)[C@@H](NC(=O)[C@H](Cc1ccccc1)NC(=O)[C@H](CCC(=O)O)NC(=O)C(C)(C)NC(=O)[C@H](CCC(N)=O)NC(=O)[C@H](C)NC(=O)[C@H](CCCCNC(=O)COCCOCCNC(=O)COCCOCCNC(=O)CC[C@H](NC(=O)CCCCCCCCCCCCCCCCC(=O)O)C(=O)O)NC(=O)[C@H](CCC(=O)O)NC(=O)[C@H](CC(=O)O)NC(=O)[C@H](CC(C)C)NC(=O)[C@](C)(CC(C)C)NC(=O)[C@@H](NC(=O)[C@H](CO)NC(=O)[C@H](Cc1ccc(O)cc1)NC(=O)[C@H](CC(=O)O)NC(=O)[C@H](CO)NC(=O)[C@@H](NC(=O)[C@](C)(Cc1ccccc1F)NC(=O)[C@@H](NC(=O)CNC(=O)[C@H](CCC(=O)O)NC(=O)C(C)(C)NC(=O)[C@@H](N)Cc1ccc(O)cc1)[C@@H](C)O)[C@@H](C)O)[C@@H](C)CC)[C@@H](C)CC)C(=O)N[C@@H](CCC(=O)O)C(=O)NCC(=O)NCC(=O)N1CCC[C@H]1C(=O)N[C@@H](CO)C(=O)N[C@@H](CO)C(=O)NCC(=O)N[C@@H](C)C(=O)N1CCC[C@H]1C(=O)N1CCC[C@H]1C(=O)N1CCC[C@H]1C(=O)N[C@@H](CO)C(N)=O [Example 221] (H-Y[Aib]EGT[αMePhe(2-F)]TSDYSI[αMeL]LDEK([AEEA-AEEA-γGlu-C18 diacid])AQ[Aib]EFI[dE]YLIEGGPSSGAPPPS-NH2) | 154 nM | 0.0414 nM | 0.057 nM | 0.0445 nM | 1.77 nM
3 | CC[C@H](C)[C@H](NC(=O)[C@H](CC(C)C)NC(=O)[C@](C)(Cc1ccc(O)cc1)NC(=O)[C@@H](CCC(=O)O)NC(=O)[C@@H](NC(=O)[C@H](Cc1ccccc1)NC(=O)[C@H](CCC(=O)O)NC(=O)C(C)(C)NC(=O)[C@H](CCC(N)=O)NC(=O)[C@H](C)NC(=O)[C@H](CCCCNC(=O)COCCOCCNC(=O)COCCOCCNC(=O)CC[C@H](NC(=O)CCCCCCCCCCCCCCCCCCC(=O)O)C(=O)O)NC(=O)[C@H](CCC(=O)O)NC(=O)[C@H](CC(=O)O)NC(=O)[C@H](CC(C)C)NC(=O)[C@](C)(CC(C)C)NC(=O)[C@@H](NC(=O)[C@H](CO)NC(=O)[C@H](Cc1ccc(O)cc1)NC(=O)[C@H](CC(=O)O)NC(=O)[C@H](CO)NC(=O)[C@@H](NC(=O)[C@](C)(Cc1ccccc1F)NC(=O)[C@@H](NC(=O)CNC(=O)[C@H](CCC(=O)O)NC(=O)C(C)(C)NC(=O)[C@@H](N)Cc1ccc(O)cc1)[C@@H](C)O)[C@@H](C)O)[C@@H](C)CC)[C@@H](C)CC)C(=O)N[C@@H](CCC(=O)O)C(=O)NCC(=O)NCC(=O)N1CCC[C@H]1C(=O)N[C@@H](CO)C(=O)N[C@@H](CO)C(=O)NCC(=O)N[C@@H](C)C(=O)N1CCC[C@H]1C(=O)N1CCC[C@H]1C(=O)N1CCC[C@H]1C(=O)N[C@@H](CO)C(N)=O [Example 222] (H-Y[Aib]EGT[αMePhe(2-F)]TSDYSI[αMeL]LDEK([AEEA-AEEA-γGlu-C20 diacid])AQ[Aib]EFI[dE][αMeY]LIEGGPSSGAPPPS-NH2; N-terminus assumed) | 71.3 nM | 0.0495 nM | 0.0248 nM | 0.0306 nM | 3.59 nM
4 | CC[C@H](C)[C@H](NC(=O)[C@H](CC(C)C)NC(=O)[C@](C)(Cc1ccc(O)cc1)NC(=O)[C@H](CCC(=O)O)NC(=O)[C@@H](NC(=O)[C@H](Cc1ccccc1)NC(=O)[C@H](CCC(=O)O)NC(=O)C(C)(C)NC(=O)[C@H](CCC(N)=O)NC(=O)[C@H](C)NC(=O)[C@H](CCCCNC(=O)COCCOCCNC(=O)COCCOCCNC(=O)CC[C@H](NC(=O)CCCCCCCCCCCCCCCCCCC(=O)O)C(=O)O)NC(=O)[C@H](CCC(=O)O)NC(=O)[C@H](CC(=O)O)NC(=O)[C@H](CC(C)C)NC(=O)[C@](C)(CC(C)C)NC(=O)[C@@H](NC(=O)[C@H](CO)NC(=O)[C@H](Cc1ccc(O)cc1)NC(=O)[C@H](CC(=O)O)NC(=O)[C@H](CO)NC(=O)[C@@H](NC(=O)[C@](C)(Cc1ccccc1F)NC(=O)[C@@H](NC(=O)CNC(=O)[C@H](CCC(=O)O)NC(=O)C(C)(C)NC(=O)[C@@H](N)Cc1ccc(O)cc1)[C@@H](C)O)[C@@H](C)O)[C@@H](C)CC)[C@@H](C)CC)C(=O)N[C@@H](CCC(=O)O)C(=O)NCC(=O)NCC(=O)N1CCC[C@H]1C(=O)N[C@@H](CO)C(=O)N[C@@H](CO)C(=O)NCC(=O)N[C@@H](C)C(=O)N1CCC[C@H]1C(=O)N1CCC[C@H]1C(=O)N1CCC[C@H]1C(=O)N[C@@H](CO)C(N)=O [Example 223] (H-Y[Aib]EGT[αMePhe(2-F)]TSDYSI[αMeL]LDEK([AEEA-AEEA-γGlu-C20 diacid])AQ[Aib]EFIE[αMeY]LIEGGPSSGAPPPS-NH2) | 46.5 nM | 0.0921 nM | 0.0363 nM | 0.067 nM | 5.62 nM
5 | CC[C@H](C)[C@H](NC(=O)[C@H](CC(C)C)NC(=O)[C@H](Cc1ccc(O)cc1)NC(=O)[C@@H](CCC(=O)O)NC(=O)[C@@H](NC(=O)[C@H](Cc1ccccc1)NC(=O)[C@H](CCC(=O)O)NC(=O)C(C)(C)NC(=O)[C@H](CCC(N)=O)NC(=O)[C@H](C)NC(=O)[C@H](CCCCNC(=O)COCCOCCNC(=O)COCCOCCNC(=O)CC[C@H](NC(=O)CCCCCCCCCCCCCCCCCCC(=O)O)C(=O)O)NC(=O)[C@H](CCC(=O)O)NC(=O)[C@H](CC(=O)O)NC(=O)[C@H](CC(C)C)NC(=O)C(C)(C)NC(=O)[C@@H](NC(=O)[C@H](CO)NC(=O)[C@H](Cc1ccc(O)cc1)NC(=O)[C@H](CC(=O)O)NC(=O)[C@H](CO)NC(=O)[C@@H](NC(=O)[C@](C)(Cc1ccccc1F)NC(=O)[C@@H](NC(=O)CNC(=O)[C@H](CCC(=O)O)NC(=O)C(C)(C)NC(=O)[C@@H](N)Cc1ccc(O)cc1)[C@@H](C)O)[C@@H](C)O)[C@@H](C)CC)[C@@H](C)CC)C(=O)N[C@@H](CCC(=O)O)C(=O)NCC(=O)NCC(=O)N1CCC[C@H]1C(=O)N[C@@H](CO)C(=O)N[C@@H](CO)C(=O)NCC(=O)N[C@@H](C)C(=O)N1CCC[C@H]1C(=O)N1CCC[C@H]1C(=O)N1CCC[C@H]1C(=O)N[C@@H](CO)C(N)=O [Example 224] (H-Y[Aib]EGT[αMePhe(2-F)]TSDYSI[Aib]LDEK([AEEA-AEEA-γGlu-C20 diacid])AQ[Aib]EFI[dE]YLIEGGPSSGAPPPS-NH2) | 627 nM | 0.0482 nM | 0.0349 nM | 0.0545 nM | 6.86 nM
